In patent publication US20090047243A1, “COMBINATIONS FOR THE TREATMENT OF B-CELL PROLIFERATIVE DISORDERS” (priority 2007, published 2009):

How the values were obtained:
[1] = tested on: human multiple myeloma cells (MM.1S); assay: Anti-proliferation assay (ATPLite, 72 h); format: cell-based; design: key to synergy score / synergy (score), PDEi × HE-NECA: S = lnfX·lnfY·ΣIdata(Idata−ILoewe), volume over Loewe additivity; details: for synergy (score), PDEi × HE-NECA: 6×6 cross of PDE inhibitor or PDE inhibitor mixture with HE-NECA
Procedure: (§1) ANBL6 and INA-6 culture media was also supplemented with 10 ng/ml IL-6. […] MM.1S, MM.1R, OCI-ly10, Karpas 422, and SU-DHL6 cells were provided by the Dana Farber Cancer Institute. H929, RPMI-8226, GA-10, and Farage cells were from ATCC (Cat #'s CCL-155, CRL-9068, CRL-2392 and CRL-2630 respectively). MOLP-8, EJM, KSM-12-PE, and OPM2 were from DSMZ. The ANBL6 and INA-6 cell lines were provided by the M. D. Anderson Cancer Research Center. Compounds were prepared in DMSO at 1000× the highest desired concentration. Master plates were generated consisting of serially diluted compounds in 2- or 3-fold dilutions in 384-well format. For single agent dose response curves, the master plates consisted of 9 individual compounds at 12 concentrations in 2- or 3-fold dilutions. For combination matrices, master plates consisted of individual compounds at 6 or 9 concentrations at 2- or 3-fold dilutions. […] To obtain combination data, two master plates were diluted into the assay plates. […] Thirty microliters of ATPLite (Perkin Elmer) at room temperature was then added to each well. […] Measurements were taken at the top of the well using a luminescence aperture and a read time of 0.1 seconds per well. The percent inhibition (% I) for each well was calculated using the following formula: % I=[(avg. untreated wells-treated well)/(avg. untreated wells)]×100. […] Negative inhibition values result from local variations in treated wells as compared to untreated wells. […] The uncertainty of each fitted parameter was estimated from the range over which the change in reduced chi-squared was less than one, or less than minimum reduced chi-squared if that minimum exceeded one, to allow for underestimated σI errors. Single agent curve data were used to define a dilution series for each compound to be used for combination screening in a 6×6 matrix format. […] The Loewe additivity model was used to quantify combination effects. […] A “Synergy Score” was also used, where the Synergy Score S=log fX log fY ΣIdata(Idata-ILoewe), summed over all non-single-agent concentration pairs, and where log fX,Y is the natural logarithm of the dilution factors used for each single agent. This effectively calculates a volume between the measured and Loewe additive response surfaces, weighted towards high inhibition and corrected for varying dilution factors. An uncertainty σS was calculated for each synergy score, based on the measured errors for the Idata values and standard error propagation.

[2] = tested on: phosphodiesterase (PDE) types; details: PDE type(s) in brackets after the name; cited from earlier work
[3] = tested on: human multiple myeloma cells (MM.1R); assay: Anti-proliferation assay (ATPLite, 72 h); format: cell-based; design: key: S = lnfX·lnfY·ΣIdata(Idata−ILoewe), volume over Loewe additivity
Procedure: as §1

[4] = tested on: RPMI-8226 multiple myeloma cell line; assay: Anti-proliferation assay (ATPLite, 72 h); format: cell-based, human; design: key: S = lnfX·lnfY·ΣIdata(Idata−ILoewe), volume over Loewe additivity
Procedure: as §1

[5] = tested on: H929 multiple myeloma cell line; assay: Anti-proliferation assay (ATPLite, 72 h); format: cell-based, human; design: key: S = lnfX·lnfY·ΣIdata(Idata−ILoewe), volume over Loewe additivity; details: for synergy (score), PDEi × HE-NECA: 6×6 cross of PDE inhibitor or PDE inhibitor mixture with HE-NECA
Procedure: as §1

[6] = PDE inhibitor crossed with Chloro-IB-MECA, MM.1S
[7] = PDE inhibitor crossed with HE-NECA, MM.1S
[8] = in combination with adenosine receptor agonist HE-NECA, MM.1S
[9] = in combination with adenosine receptor agonist HE-NECA, RPMI-8226
[10] = PDE inhibitor crossed with (S) ENBA, H929
[11] = PDE inhibitor crossed with Chloro-IB-MECA, H929
[12] = PDE inhibitor crossed with HE-NECA, H929
[13] = in combination with adenosine receptor agonist HE-NECA, H929
[14] = PDE inhibitor crossed with (S) ENBA, MM.1S
[15] = PDE inhibitor crossed with ADAC, MM.1S
[16] = in combination with adenosine receptor agonist ADAC, MM.1S
[17] = in combination with adenosine receptor agonist ADAC, MM.1R
[18] = in combination with adenosine receptor agonist ADAC, RPMI-8226
[19] = PDE inhibitor crossed with ADAC, H929
[20] = in combination with adenosine receptor agonist ADAC, H929
[21] = in combination with adenosine receptor agonist CGS-21680, MM.1S
[22] = in combination with adenosine receptor agonist regadenoson, MM.1S
[23] = in combination with adenosine receptor agonist CGS-21680, MM.1R
[24] = in combination with adenosine receptor agonist regadenoson, MM.1R
[25] = in combination with adenosine receptor agonist CGS-21680, RPMI 8226
[26] = in combination with adenosine receptor agonist regadenoson, RPMI 8226
[27] = in combination with adenosine receptor agonist CGS-21680, H929
[28] = in combination with adenosine receptor agonist regadenoson, H929

Compound	synergy score [1, 6]	synergy score [1, 7]	synergy score [1, 8]	PDE inhibitors (specificity) [2]	synergy score [4, 9]	synergy score [5, 10]	synergy score [5, 11]	synergy score [5, 12]	synergy score [5, 13]	synergy score [1, 14]	synergy score [1, 15]	synergy score [5, 19]	synergy score [1, 21]	synergy score [1, 22]	synergy score [3, 23]	synergy score [3, 24]	synergy score [4, 25]	synergy score [4, 26]	synergy score [5, 27]	synergy score [5, 28]	further results
CN(C(=O)CCCOc1ccc2[nH]c(=O)ccc2c1)C1CCCCC1 [Cilostamide, N-cyclohexyl-4-((1,2-dihydro-2-oxo-6-quinolinyl)oxy)-N-methyl-butanamide]	1.1	0.49	1.637	Cilostamide (3)	0.2381	1.17	0.65	0.28	1.67												synergy (score), PDEi × HE-NECA ([1]; MM.1S): 1.02; synergy score ([3]; in combination with adenosine receptor agonist HE-NECA, MM.1R): 1.692; synergy (score), PDEi × HE-NECA ([5]; H929): 0.56
CCCCOc1cc(CC2CNC(=O)N2)ccc1OC (stereo not drawn) [RO-20-1724, 4-(3-butoxy-4-methoxybenzyl)-2-imidazolidinone]	1.6	3.58		RO-20-1724 (4)		0.09	1.14	2.51		0.73	1.71	1.11									inhibition at 2.28 µM ([1]; Homo sapiens, MM1.S, RO-20-1724 2.28 μM, HE-NECA conc. (nM), read-out: Percent inhibition of ATP in MM.1S cells): 2.3%; inhibition at 4.55 µM ([1]; Homo sapiens, MM1.S, RO-20-1724 4.55 μM, HE-NECA conc. (nM), read-out: Percent inhibition of ATP in MM.1S cells): 11%; inhibition at 18.2 µM ([1]; Homo sapiens, MM1.S, RO-20-1724 18.2 μM, HE-NECA conc. (nM), read-out: Percent inhibition of ATP in MM.1S cells): 10%; inhibition at 36.4 µM ([1]; Homo sapiens, MM1.S, RO-20-1724 36.4 μM, HE-NECA conc. (nM), read-out: Percent inhibition of ATP in MM.1S cells): 1.4%; synergy score [1, 16]: 1.71; synergy score [3, 17]: 3.42; synergy score [4, 18]: 0.51; synergy score [5, 20]: 1.1
Cc1ccc([N+](=O)[O-])cc1S(=O)(=O)N(C)C [BRL-50481, 3-(N,N-dimethylsulfonamido)-4-methyl-nitrobenzene]	1.47	1.41	1.38	BRL-50481(7)	0.147	0.26	0.34	0.23	0.193	1.22			1.78	0.82	1.22	1.09	0.19	0.39	0.34	0.19	
COc1ccc(C2CNC(=O)C2)cc1OC1CCCC1 (stereo not drawn) [Rolipram, 4-(3-cyclopentyloxy-4-methoxyphenyl)-2-pyrrolidone]	1.11	1.08	1.076	Rolipram (4)	0.2845	0.46	0.74	1.09	1.089	0.73	1.15	1.11									synergy score [1, 16]: 1.147; synergy score [3, 17]: 4.105; synergy score [4, 18]: 0.4277; synergy score [5, 20]: 1.114
O=C1CCc2cc(OCCCCc3nnnn3C3CCCCC3)ccc2N1 [Cilostazol, 6-[4-(1-cyclohexyl-1H-tetrazol-5-yl)butoxy]-3,4-dihydro-2(1H)-quinolinone]	0.75	3.50	1.849	Cilostazol (3)	0.2486	0.4	0.46	1.21	0.6849	1.73	0.89	0.36	4.09	1.85	1.57	0.76	0.37	0.12	1.12	1.34	
COc1ccc(Cc2nn3c([C@@H](CCCc4ccccc4)[C@@H](C)O)nc(C)c3c(=O)[nH]2)cc1OC [BAY 60-7550, 2-(3,4-dimethoxybenzyl)-7-[(1R)-1-[(1R)-1-hydroxyethyl]-4-phenylbutyl]-5-methylimidazo[5,1-f][1,2,4]triazin-4(3H)-one]	0.86	3.8	2.364	BAY 60-7550 (2)	0.7784	1.07	0.74	3.71	1.933	2.84	0.85	0.55	3.85	0.91	4.59	3.07	0.76	0.98	3.86	1.89	synergy (score), PDEi × HE-NECA ([1]; MM.1S): 1.64; inhibition at 0.7375 µM ([1]; Homo sapiens, MM1.S, BAY 60-7550 0.7375 μM, HE-NECA conc. (nM), read-out: Percent inhibition of ATP in MM.1S cells): -9.4%; inhibition at 1.475 µM ([1]; Homo sapiens, MM1.S, BAY 60-7550 1.475 μM, HE-NECA conc. (nM), read-out: Percent inhibition of ATP in MM.1S cells): -3.6%; inhibition at 2.95 µM ([1]; Homo sapiens, MM1.S, BAY 60-7550 2.95 μM, HE-NECA conc. (nM), read-out: Percent inhibition of ATP in MM.1S cells): 4%; inhibition at 5.9 µM ([1]; Homo sapiens, MM1.S, BAY 60-7550 5.9 μM, HE-NECA conc. (nM), read-out: Percent inhibition of ATP in MM.1S cells): 6%; inhibition at 11.8 µM ([1]; Homo sapiens, MM1.S, BAY 60-7550 11.8 μM, HE-NECA conc. (nM), read-out: Percent inhibition of ATP in MM.1S cells): 13%; synergy (score), PDEi × HE-NECA ([5]; H929): 1.68
CN/C(=N\c1ccc(C2=NNC(=O)CC2C)cc1)NC#N (stereo not drawn) [Siguazodan]	0.42	0.72		Siguazodan (3)		0.13	0.09	0.08		1.39											
(R)-Rolipram	0.84	4.38		(R)-Rolipram (4)		0.82	0.63	2.51		2.08	0.97	0.51									
Cc1[nH]c(=O)c(C#N)cc1-c1ccncc1 [milrinone]	0.25	0.33		Milrinone (3)			0.08	0.15		1.31											
